Read-outs that look alike come from different tables or passages of the source.
Molecular target: T1, hAhR (Homo sapiens, UniProt P35869)
T1 construct: Stably integrated DRE-luciferase cell lines were generated by transducing the both cell lines with Cignal XRE luciferase reporter (Qiagen) lentiviral particles; endogenous in cells; host or cells: HEPG2 (human hepatoma) with stably integrated XRE/DRE-luciferase reporter
T1 sequence (P35869 11-848): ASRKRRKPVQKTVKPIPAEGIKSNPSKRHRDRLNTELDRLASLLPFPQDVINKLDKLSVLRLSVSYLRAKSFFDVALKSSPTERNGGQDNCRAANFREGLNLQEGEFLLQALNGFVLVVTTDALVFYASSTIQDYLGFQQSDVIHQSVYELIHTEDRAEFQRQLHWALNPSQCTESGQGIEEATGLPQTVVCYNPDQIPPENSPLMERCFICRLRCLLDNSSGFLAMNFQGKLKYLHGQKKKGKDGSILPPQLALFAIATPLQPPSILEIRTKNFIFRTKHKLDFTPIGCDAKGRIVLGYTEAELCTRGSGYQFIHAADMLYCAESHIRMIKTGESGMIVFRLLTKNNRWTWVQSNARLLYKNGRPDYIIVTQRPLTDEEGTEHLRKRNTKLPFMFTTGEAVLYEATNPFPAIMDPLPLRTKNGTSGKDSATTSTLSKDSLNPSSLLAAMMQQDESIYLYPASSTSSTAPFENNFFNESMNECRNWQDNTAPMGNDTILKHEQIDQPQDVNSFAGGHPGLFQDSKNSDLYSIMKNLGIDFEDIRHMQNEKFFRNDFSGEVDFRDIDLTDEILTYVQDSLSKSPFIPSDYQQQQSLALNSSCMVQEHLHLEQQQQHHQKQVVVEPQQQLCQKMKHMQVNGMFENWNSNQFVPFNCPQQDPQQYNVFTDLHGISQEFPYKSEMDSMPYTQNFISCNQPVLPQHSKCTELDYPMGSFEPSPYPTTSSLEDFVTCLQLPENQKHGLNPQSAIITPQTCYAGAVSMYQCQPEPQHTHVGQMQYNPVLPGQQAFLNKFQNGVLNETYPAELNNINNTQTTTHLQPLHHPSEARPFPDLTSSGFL
Experiment: DRE-luciferase transcriptional assay, antagonist mode, in HEPG2 DRE-Luc cells stimulated with TCDD
Assay type: cell-based
Details: for Emax: read-out: HEPG2 % Max Inhibition; for IC50: relative IC50, read-out: IC50 hAhR (antagonist mode)
Procedure: HEPG2 and HEPA1C1C7 cells were maintained in MEM and αMEM without nucleosides supplemented with 10% heat inactivated FBS respectively. Stably integrated DRE-luciferase cell lines were generated by transducing the both cell lines with Cignal XRE luciferase reporter (Qiagen) lentiviral particles according to the manufacturer protocol. For both cell lines stably integrated reporter cell lines were selected for the presence of 2 μg/mL puromycin. Following selection of stably integrated cell line pools, clonal cell lines were isolated by limiting dilution in 96-well plates. Transcriptional assays were performed by seeding 100 μL of cells at a density of 250,000 or 100,000 cells/mL, for HEPG2 and HEPA1C1C7 DRE-Luc cells respectively, into 96-well cell culture plates in OptiMEM supplemented with 0.5% heat inactivated FBS and allowed to attach overnight. For antagonist assays, the compounds were added in a semi-log dose response using a D300e Digital Dispenser (Tecan) followed normalization with vehicle (DMSO). Immediately following compound addition […] of 2,3,7,8-Tetrachlorodibenzo-p-dioxin (TCDD) was added to the cells to a final concentration of 3 nM or 0.3 nM for the HEPG2 and HEPA1C1C7 DRE-Luc cells respectively. Following 24 h incubation the medium was removed and the cells were lysed in 25 μL of Reporter Lysis Buffer (Promega). Firefly luciferase activity was measured immediately following the addition of 50 μL Luciferase Assay Reagent (Promega). The percent maximal activity for each point was determined using the following equation: 100−(RLUsample−RLUvehicle−TCDD)/(RLUvehicle+TCDD RLUvehicle−TCDD)*100. The relative IC50, defined as the compound concentration required to reduce the TCDD induced response between the top and bottom plateau of each individual dose response curve by half, for each compound was determined using Prism 7 (GraphPad Software).

[1] = HEPG2 DRE-Luc cells, 3 nM TCDD, 24 h incubation

In the case of `Cc1cncc(-c2cn3c(C(C)C)nnc3c(NCCc3ccc(O)cc3)n2)c1` [Example 1], the Emax [1] is reported as 100% and the IC50 [1] is reported as 500 to 1000 nM.

With `CC(C)c1nnc2c(NCCc3ccc(O)cc3)nc(-c3cncc(C#N)c3)cn12` [Example 2, 5-(8-{[2-(4-hydroxyphenyl)ethyl]amino}-3-isopropyl-4-hydro-1,2,4-triazolo[4,3-a]pyrazin-6-yl)pyridine-3-carbonitrile] the Emax [1] was 100% and the IC50 [1] was less than 200 nM.

With `Cc1cncc(-c2cn3c(C(C)C)nnc3c(NCCc3c[nH]c4ccccc34)n2)c1` [Example 3] the Emax [1] was 100% and the IC50 [1] was less than 200 nM.

In the case of `CC(C)c1nnc2c(NCCc3c[nH]c4ccccc34)nc(-c3cncc(C#N)c3)cn12` [Example 4, 5-{8-[(2-indol-3-ylethyl)amino]-3-isopropyl-4-hydro-1,2,4-triazolo[4,3-a]pyrazin-6-yl}pyridine-3-carbonitrile], the Emax [1] is reported as 100% and the IC50 [1] is reported as less than 200 nM.

Compound `Cc1cncc(-c2cn3c(C(C)C)cnc3c(NCCc3ccc(O)cc3)n2)c1` [Example 5] has an Emax [1] of 65% and an IC50 [1] of 500 to 1000 nM.

With `CC(C)c1cnc2c(NCCc3ccc(O)cc3)nc(-c3cncc(C#N)c3)cn12` [Example 6, 5-(8-{[2-(4-hydroxyphenyl)ethyl]amino}-3-isopropyl-4-hydroimidazo[1,2-a]pyrazin-6-yl)pyridine-3-carbonitrile] the Emax [1] was 100% and the IC50 [1] was 200 to 500 nM.

Compound `Cc1cncc(-c2cn3c(C(C)C)cnc3c(NCCc3c[nH]c4ccccc34)n2)c1` [Example 7, (2-indol-3-ylethyl)[6-(5-methyl(3-pyridyl))-3-isopropyl-(4-hydroimidazo[1,2-a]pyrazin-8-yl)]amine] has an Emax [1] of 100% and an IC50 [1] of less than 200 nM.

`CC(C)c1cnc2c(NCCc3c[nH]c4ccccc34)nc(-c3cncc(C#N)c3)cn12` [Example 8, 5-{8-[(2-indol-3-ylethyl)amino]-3-isopropyl-4-hydroimidazo[1,5-a]pyrazin-6-yl}pyridine-3-carbonitrile] gave an Emax [1] of 100% and an IC50 [1] of less than 200 nM.

`Cc1cncc(-c2cn3c(C(C)C)ncc3c(NCCc3c[nH]c4ccccc34)n2)c1` [Example 9] showed an Emax [1] of 100% and an IC50 [1] of 200 to 500 nM.

`Cc1cncc(-c2cn3c(C(C)C)ncc3c(NCCc3ccc(O)cc3)n2)c1` [Example 10, 4-(2-{[6-(5-methyl(3-pyridyl))-3-isopropyl-4-hydroimidazo[1,5-a]pyrazin-8-yl]amino}ethyl)phenol] showed an IC50 [1] of 1000 to 10000 nM and an Emax (HepG2, 24 h) of 47%.

Compound `Cc1nccn1-c1cn2c(C(C)C)cnc2c(NCCc2c[nH]c3c(F)cccc23)n1` [Example 11, [2-(7-fluoroindol-3-yl)ethyl][3-isopropyl-6-(2-methylimidazolyl)(4-hydroimidazo[1,2-a]pyrazin-8-yl)]amine] has an IC50 [1] of less than 200 nM and an Emax (HepG2, 24 h) of 100%.

With `Cc1nccn1-c1cn2c(C(C)C)cnc2c(NCCc2c[nH]c3cc(F)ccc23)n1` [Example 12, [2-(6-fluoroindol-3-yl)ethyl][3-isopropyl-6-(2-methylimidazolyl)(4-hydroimidazo[1,2-a]pyrazin-8-yl)]amine] the Emax [1] was 100% and the IC50 [1] was less than 200 nM.

For `Cc1nccn1-c1cn2c(C(C)C)cnc2c(NCCc2c[nH]c3ccc(F)cc23)n1` [Example 13, [2-(5-fluoroindol-3-yl)ethyl][3-isopropyl-6-(2-methylimidazolyl)(4-hydroimidazo[1,2-a]-pyrazin-8-yl)]amine], the Emax [1] was 99%.

In the case of `Cc1nccn1-c1cn2c(C(C)C)cnc2c(NCCc2c[nH]c3cccc(F)c23)n1` [Example 14, [2-(4-fluoroindol-3-yl)ethyl][3-isopropyl-6-(2-methylimidazolyl)(4-hydroimidazo[1,2-a]-pyrazin-8-yl)]amine], the Emax [1] is reported as 100% and the IC50 [1] is reported as less than 200 nM.

Work on `Cc1nccn1-c1cn2c(C(C)C)cnc2c(NCCc2c[nH]c3cccnc23)n1` [Example 15, [3-isopropyl-6-(2-methylimidazolyl)(4-hydroimidazo[1,2-a]pyrazin-8-yl)](2-pyrrolo[3,2-b]pyridin-3-ylethyl)amine] yielded an Emax [1] of 73% and an IC50 [1] of 1000 to 10000 nM.
